Test results from patent US20160153991A1, “Synbodies for Detection of Human Norovirus” (priority 2013, published 2016).

Experiments:
Assay type in all cases: binding, Norovirus
nVLP GII.4 = test: Surface plasmon resonance (SPR) screening of optimized peptides against GII.4; conditions: unpurified peptides against nVLP GII.4; for kd-1: SPR dissociation rate; for % Stability / Avg Binding (Spot 1/2): SPR
Description: These 96 peptides were synthesized and tested unpurified against GII.4 via surface plasmon resonance (SPR), a sample of which is shown in FIG. 3. Peptides candidates were analyzed and selected for improved binding and slower dissociation rate. Finally, a list of 10 peptide candidates with improved binding and slower dissociation rates were chosen to construct bivalent peptide affinity reagents (synbodies).

GII.4 Sydney VLP = GII.4 Sydney VLP (VP1 identity 95%)
GII.4 Minerva VLP = test system: GII.4 Minerva VLP

Row | Substance | kd-1 (nVLP GII.4) [s] | % Stability (nVLP GII.4) [%] | Avg Binding (Spot 1/2) (nVLP GII.4) | Enrichment Factor from 1 ng/μL solution (GII.4 Sydney VLP) | Enrichment Factor from 1 ng/μL solution (GII.4 Minerva VLP; GII.4 Minerva VLP (VP1 identity 100%), 1 ng/μL solution) | enrichment of VLP (in words) (GII.4 Minerva VLP; either GII.4 Minerva or both GII.4 Minerva and GII.4 Sydney)
1 | SWARSNNKRSKAFNLGWGSC [Mut Peptide-78, optimized peptide] | 0.00431 | 46 | 168.8 | – | – | –
2 | DWARSNTSRSMDFNLGWGSC [nVLP-2WT] | 0.0233 | – | 2.5 | – | – | –
3 | AWARSNNSRSKAFNLGWGSC [Mut Peptide-81, optimized peptide] | 0.00455 | 45 | 127.9 | – | – | –
4 | RWVRVKLRSHTKLRYIGSC [Mut Peptide-94, optimized peptide] | 0.00294 | 63 | 358.2 | – | – | –
5 | LLYNKTFPHGRWSPSYPGSC [nVLP-1WT] | 0.00785 | 25 | 71.5 | – | – | –
6 | Syn 6-6: synbody 6-6 from Table 2; scaffold not stated (Table 2 lists both nVLP6-6-1571 and nVLP6-6MAP2) (RWHRVDLRSHTELPRYIGSC) | – | – | – | n.e. | 16 | enrichment
7 | VWARKNNKRKKDFNAGWGSC [Mut Peptide-53, optimized peptide] | 0.00408 | 51 | 188.8 | – | – | –
8 | RWVRVKLRSHTELNRYIGSC [Mut Peptide-93, optimized peptide] | 0.00332 | 60 | 274.2 | – | – | –
9 | RWHRVKLRSHTELNRYIGSC [Mut Peptide-92, optimized peptide] | 0.00355 | 57 | 229.5 | – | – | –
10 | RWHRVDLRSHTELPRYIGSC [nVLP-6WT] | 0.00513 | 37 | 175.7 | – | – | –
11 | DWARKNNKRKMNFNLGWGSC [Mut Peptide-60, optimized peptide] | 0.00487 | 44 | 134.3 | – | – | –
